Source: US8609847B2, “Dihydroquinolinone derivatives” (Taisho Pharmaceutical Co., Ltd, priority 2009, dated 2013)

Molecular target: T1, human H3 receptor (Homo sapiens, UniProt Q9Y5N1)
T1 construct: purchased Perkin Elmer ES-392-M400UA; host or cells: CHO-K1 cells (recombinant expression), membrane preparation
Assay: H3 Receptor Binding Test
Conditions: 50% inhibition of R(−)-α-methyl[3H]histamine (1 nM) binding; membrane preparation of human H3 receptor-expressing CHO-K1 cells
Experimental: A membrane preparation of human H3 receptor-expressing CHO-K1 cells (Perkin Elmer, ES-392-M400UA, 15 μg protein/200 μl), R(−)-α-methyl[^3H]histamine (Amersham, TRK-1017, specific activity: 1.74 TBq/mmol, 1 nM) and a test drug were reacted at room temperature for 1 hour. After completion of the reaction, the reaction mixture was subjected to suction filtration through a 0.3% polyethyleneimine-treated glass filter (GF/C). The glass filter was washed five times with 50 mM Tris-HCl washing solution (pH 7.4) containing 5 mM EDTA. After washing, the glass filter was dried and a scintillator was added thereto, followed by measurement of radioactivity on the filter using a liquid scintillation counter.
Binding of R(−)-α-methyl[^3H]histamine in the presence of 10 μM R(−)-α-methylhistamine was defined as non-specific binding, and the difference between total binding and non-specific binding of R(−)-α-methyl[^3H]histamine was defined as specific binding of R(−)-α-methyl[^3H]histamine. A fixed concentration (1 nM) of R(−)-α-methyl[^3H]histamine was reacted under the above conditions with each test drug at various concentrations to obtain an inhibition curve. The inhibition curve was used to determine the concentration (IC50) of each test drug required for 50% inhibition of R(−)-α-methyl[^3H]histamine binding.

T1 sequence (Q9Y5N1 whole entry): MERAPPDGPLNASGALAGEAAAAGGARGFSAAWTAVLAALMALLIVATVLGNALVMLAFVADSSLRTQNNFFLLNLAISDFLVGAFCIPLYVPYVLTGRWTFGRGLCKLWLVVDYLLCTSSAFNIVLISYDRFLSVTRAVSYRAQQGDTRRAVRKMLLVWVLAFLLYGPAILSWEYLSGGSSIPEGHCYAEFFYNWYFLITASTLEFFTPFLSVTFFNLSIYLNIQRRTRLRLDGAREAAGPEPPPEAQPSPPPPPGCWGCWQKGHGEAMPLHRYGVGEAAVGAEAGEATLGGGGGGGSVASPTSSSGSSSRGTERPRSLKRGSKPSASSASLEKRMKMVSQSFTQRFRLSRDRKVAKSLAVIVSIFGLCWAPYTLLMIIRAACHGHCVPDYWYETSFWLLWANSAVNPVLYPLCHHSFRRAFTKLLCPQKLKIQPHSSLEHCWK

Row | IC50 [nM] | Compound
1 | 4.8 | C[C@@H]1CCCN1CCCOc1ccc2c(c1)CCC(=O)N2c1ccn(C)c(=O)c1 [Compound No. 54, 1-(1-methyl-2-oxo-1,2-dihydropyridin-4-yl)-6-{3-[(2R)-2-methylpyrrolidin-1-yl]propoxy}-3,4-dihydroquinolin-2(1H)-one]
2 | 1.2 | C[C@@H]1CCCN1CCCOc1ccc2c(c1)CCC(=O)N2c1cncc(F)c1 [Compound No. 52, 1-(5-fluoropyridin-3-yl)-6-{3-[(2R)-2-methylpyrrolidin-1-yl]propoxy}-3,4-dihydroquinolin-2(1H)-one]
3 | 2.1 | O=C1CCc2cc(OC3CCN(C4CC4)CC3)ccc2N1c1ccc(F)cc1 [Compound No. 77, 6-[(1-cyclopropylpiperidin-4-yl)oxy]-1-(4-fluorophenyl)-3,4-dihydroquinolin-2(1H)-one]
4 | 13 | CCN(CC)CCCOc1ccc2c(c1)CCC(=O)N2c1ccc(F)cc1 [Compound No. 83, 6-[3-(diethylamino)propoxy]-1-(4-fluorophenyl)-3,4-dihydroquinolin-2(1H)-one]
5 | 0.75 | O=C1CCc2cc(OC3CCN(C4CCC4)CC3)ccc2N1c1ccc(Cl)cc1 [Compound No. 70, 1-(4-chlorophenyl)-6-[(1-cyclobutylpiperidin-4-yl)oxy]-3,4-dihydroquinolin-2(1H)-one]
6 | 13 | O=C1CCc2cc(OCCCN3CCCC3)ccc2N1c1ccc(F)cc1 [Compound No. 78, 1-(4-fluorophenyl)-6-[3-(pyrrolidin-1-yl)propoxy]-3,4-dihydroquinolin-2(1H)-one]
7 | 2.4 | CC(C)(C)N1CCC(Oc2ccc3c(c2)CCC(=O)N3c2ccccc2)CC1 [Compound No. 61, 6-[(1-tert-butylpiperidin-4-yl)oxy]-1-phenyl-3,4-dihydroquinolin-2(1H)-one]
8 | 8.5 | CC(C)(C)N1CCC(Oc2ccc3c(c2)CCC(=O)N3c2cnc3ccccc3c2)CC1 [Compound No. 59, 6-[(1-tert-butylpiperidin-4-yl)oxy]-3,4-dihydro-2H-1,3′-biquinolin-2-one]
9 | 13 | C[C@@H]1CCCN1CCCOc1ccc2c(c1)CCC(=O)N2c1ncccc1C#N [Compound No. 51, 2-[6-{3-[(2R)-2-methylpyrrolidin-1-yl]propoxy}-2-oxo-3,4-dihydroquinolin-1(2H)-yl]pyridine-3-carbonitrile]
10 | 12 | Cc1cc(OCCCN2CCC[C@H]2C)cc2c1N(c1ccc(F)cc1)C(=O)CC2 [Compound No. 86, 1-(4-fluorophenyl)-8-methyl-6-{3-[(2R)-2-methylpyrrolidin-1-yl]propoxy}-3,4-dihydroquinolin-2(1H)-one]
11 | 1.4 | CC(C)N1CCC(Oc2ccc3c(c2)CCC(=O)N3c2ccc(F)cc2)CC1 [Compound No. 75, 1-(4-fluorophenyl)-6-{[1-(propan-2-yl)piperidin-4-yl]oxy}-3,4-dihydroquinolin-2(1H)-one]
12 | 1.3 | C[C@@H]1CCCN1CCCOc1ccc2c(c1)CCC(=O)N2c1ccc2[nH]ccc2c1 [Compound No. 56, 1-(1H-indol-5-yl)-6-{3-[(2R)-2-methylpyrrolidin-1-yl]propoxy}-3,4-dihydroquinolin-2(1H)-one]
13 | 18 | O=C1CCc2cc(OCCCN3CCCC3)ccc2N1c1ccc(F)c(F)c1 [Compound No. 81, 1-(3,4-difluorophenyl)-6-[3-(pyrrolidin-1-yl)propoxy]-3,4-dihydroquinolin-2(1H)-one]
14 | 4.9 | CC(C)(C)N1CCC(Oc2ccc3c(c2)CCC(=O)N3c2ccc(C#N)cc2)CC1 [Compound No. 62, 4-{6-[(1-tert-butylpiperidin-4-yl)oxy]-2-oxo-3,4-dihydroquinolin-1(2H)-yl}benzonitrile]
15 | 3.7 | CC(C)(C)N1CCC(Oc2ccc3c(c2)CCC(=O)N3c2ccc(F)cc2)CC1 [Compound No. 66, 6-[(1-tert-butylpiperidin-4-yl)oxy]-1-(4-fluorophenyl)-3,4-dihydroquinolin-2(1H)-one]
16 | 5.4 | COc1ccc2ncc(N3C(=O)CCc4cc(OCCCN5CCC[C@H]5C)ccc43)cc2c1 [Compound No. 55, 6′-methoxy-6-{3-[(2R)-2-methylpyrrolidin-1-yl]propoxy}-3,4-dihydro-2H-1,3′-biquinolin-2-one]

More lines, now with the values behind:

Row | Compound | IC50 [nM]
17 | C[C@@H]1CCCN1CCCOc1ccc2c(c1)CCC(=O)N2c1cccc(C(=O)N(C)C)c1 [Compound No. 21, N,N-dimethyl-3-[6-{3-[(2R)-2-methylpyrrolidin-1-yl]propoxy}-2-oxo-3,4-dihydroquinolin-1(2H)-yl]benzamide] | 26
18 | C[C@@H]1CCCN1CCCOc1ccc2c(c1)CCC(=O)N2c1ccc2ncccc2c1 [Compound No. 38, 6-{3-[(2R)-2-methylpyrrolidin-1-yl]propoxy}-3,4-dihydro-2H-1,6′-biquinolin-2-one] | 2.9
19 | C[C@@H]1CCCN1CCCOc1ccc2c(c1)CCC(=O)N2c1cccnc1 [Compound No. 35, 6-{3-[(2R)-2-methylpyrrolidin-1-yl]propoxy}-1-(pyridin-3-yl)-3,4-dihydroquinolin-2(1H)-one] | 2.2
20 | C[C@@H]1CCCN1CCCOc1ccc2c(c1)CCC(=O)N2c1cccc(F)c1 [Compound No. 24, 1-(3-fluorophenyl)-6-{3-[(2R)-2-methylpyrrolidin-1-yl]propoxy}-3,4-dihydroquinolin-2(1H)-one] | 0.92
21 | COc1ccc(N2C(=O)CCc3cc(OCCCN4CCC[C@H]4C)ccc32)cc1C#N [Compound No. 33, 2-methoxy-5-[6-{3-[(2R)-2-methylpyrrolidin-1-yl]propoxy}-2-oxo-3,4-dihydroquinolin-1(2H)-yl]benzonitrile] | 4
22 | C[C@@H]1CCCN1CCCOc1ccc2c(c1)CCC(=O)N2c1ccc2c(c1)OCC2 [Compound No. 45, 1-(2,3-dihydro-1-benzofuran-6-yl)-6-{3-[(2R)-2-methylpyrrolidin-1-yl]propoxy}-3,4-dihydroquinolin-2(1H)-one] | 2.3
23 | C[C@@H]1CCCN1CCCOc1ccc2c(c1)CCC(=O)N2c1ccc(N2CCOCC2)cc1 [Compound No. 17, 6-{3-[(2R)-2-methylpyrrolidin-1-yl]propoxy}-1-[4-(morpholin-4-yl)phenyl]-3,4-dihydroquinolin-2(1H)-one] | 41
24 | C[C@@H]1CCCN1CCCOc1ccc2c(c1)CCC(=O)N2c1ccc(OC(F)(F)F)cc1 [Compound No. 9, 6-{3-[(2R)-2-methylpyrrolidin-1-yl]propoxy}-1-[4-(trifluoromethoxy)phenyl]-3,4-dihydroquinolin-2(1H)-one] | 3.5
25 | C[C@@H]1CCCN1CCCOc1ccc2c(c1)CCC(=O)N2c1ccc(C(=O)C2CC2)cc1 [Compound No. 16, 1-[4-(cyclopropylcarbonyl)phenyl]-6-{3-[(2R)-2-methylpyrrolidin-1-yl]propoxy}-3,4-dihydroquinolin-2(1H)-one] | 11
26 | C[C@@H]1CCCN1CCCOc1ccc2c(c1)CCC(=O)N2c1cncc(C#N)c1 [Compound No. 50, 5-[6-{3-[(2R)-2-methylpyrrolidin-1-yl]propoxy}-2-oxo-3,4-dihydroquinolin-1(2H)-yl]pyridine-3-carbonitrile] | 5.7
27 | C[C@@H]1CCCN1CCCOc1ccc2c(c1)CCC(=O)N2c1ccc(F)c(F)c1 [Compound No. 28, 1-(3,4-difluorophenyl)-6-{3-[(2R)-2-methylpyrrolidin-1-yl]propoxy}-3,4-dihydroquinolin-2(1H)-one] | 1
28 | C[C@@H]1CCCN1CCCOc1ccc2c(c1)CCC(=O)N2c1ccc(C(=O)N2CCCC2)cc1 [Compound No. 14, 6-{3-[(2R)-2-methylpyrrolidin-1-yl]propoxy}-1-[4-(pyrrolidin-1-ylcarbonyl)phenyl]-3,4-dihydroquinolin-2(1H)-one] | 5.7
29 | C[C@@H]1CCCN1CCCOc1ccc2c(c1)CCC(=O)N2c1cncnc1 [Compound No. 36, 6-{3-[(2R)-2-methylpyrrolidin-1-yl]propoxy}-1-(pyrimidin-5-yl)-3,4-dihydroquinolin-2(1H)-one] | 5.8
30 | C[C@@H]1CCCN1CCCOc1ccc2c(c1)CCC(=O)N2c1ccc(N2CCCC2=O)cc1 [Compound No. 18, 6-{3-[(2R)-2-methylpyrrolidin-1-yl]propoxy}-1-[4-(2-oxopyrrolidin-1-yl)phenyl]-3,4-dihydroquinolin-2(1H)-one] | 20
31 | C[C@@H]1CCCN1CCCOc1ccc2c(c1)CCC(=O)N2c1ccc(C(F)(F)F)cc1 [Compound No. 8, 6-{3-[(2R)-2-methylpyrrolidin-1-yl]propoxy}-1-[4-(trifluoromethyl)phenyl]-3,4-dihydroquinolin-2(1H)-one] | 1.6
32 | COc1cc(F)cc(N2C(=O)CCc3cc(OCCCN4CCC[C@H]4C)ccc32)c1 [Compound No. 26, 1-(3-fluoro-5-methoxyphenyl)-6-{3-[(2R)-2-methylpyrrolidin-1-yl]propoxy}-3,4-dihydroquinolin-2(1H)-one] | 2.4
33 | C[C@@H]1CCCN1CCCOc1ccc2c(c1)CCC(=O)N2c1ccc2c(c1)OCCO2 [Compound No. 43, 1-(2,3-dihydro-1,4-benzodioxin-6-yl)-6-{3-[(2R)-2-methylpyrrolidin-1-yl]propoxy}-3,4-dihydroquinolin-2(1H)-one] | 2.2
34 | CC(=O)c1ccc(N2C(=O)CCc3cc(OCCCN4CCC[C@H]4C)ccc32)cc1 [Compound No. 15, 1-(4-acetylphenyl)-6-{3-[(2R)-2-methylpyrrolidin-1-yl]propoxy}-3,4-dihydroquinolin-2(1H)-one] | 3.6
